Experimental data taken from patent publication US20130165472A1, “HETEROARYLS AND USES THEREOF” (MILLENNIUM PHARMACEUTICALS, INC., priority 2011, published 2013).

Target: T1, VPS34 (Homo sapiens, UniProt Q8NEB9)
T1 construct: GST (N); host or cells: SF9 insect cells (baculovirus)
Test: Human VPS34 enzyme assay (Adapta TR-FRET)
Format: biochemical
Conditions: for VPS34 Percent Inhibition: at a 1.11 μM concentration
Method: VPS34 (accession number GB:BC033004) was cloned into pDEST20-Thombin as N-terminal GST tagged fusion proteins using the Gateway system (Invitrogen, catalog#11804-013). The sequences were verified before recombinant protein expression using the Baculovirus Expression System with Gateway® Technology.
For expression VPS34 was infected at 1MOI in SF9 cells and harvested 72 hours post infection.
For purification, VPS34 is purified by Glutathione Sepharose 4 Fast Flow (GE Healthcare #17-5132-03) followed by HiTrap Q (GE Healthcare #17-1153-01).
Human VPS34 Enzyme Assay Method
100 mL compounds in DMSO are added to wells of a 384 well microtitre plate (Greiner 780076). At room temperature: 5 ul VPS34 reaction buffer (Invitrogen Assay Buffer Q (diluted 1 in 5 with nanopure water) plus 2 mM DTT and 2 mM MnCl2) containing ATP (20 uM, Promega) and 200 uM PI-PS substrate (Invitrogen PV5122) is added followed immediately by 5 ul VPS34 reaction buffer (as above) containing VPS34 (5 nM, Millennium Protein Sciences Group) and the mixture is incubated with shaking at room temperature for 1 hour. Then 5 ul VPS34 stop-detect mix (as per Invitrogen Adapta Assay kit (PV5009) instructions (contains kinase quench buffer, TR-FRET buffer, Adapta Eu anti-ADP antibody and Alexa Fluor 647 ADP tracer)) is added to quench the reaction. The plates are then incubated for 30 minutes at room temperature with shaking and then read on a BMG PheraStar Plus reader.
For the assay methods described above, test compound percent inhibition, at various concentrations, is calculated relative to control (DMSO and EDTA) treated samples. Compound concentration versus percent inhibition curves are fitted to generate IC50 values. One skilled in the art will appreciate that the values generated either as percentage inhibition at a single concentration or IC50 values are subject to experimental variation.
3) VPS34 is assayed using Adapta™ Universal Kinase Assay Kit (Invitrogen).

T1 sequence (Q8NEB9 whole entry): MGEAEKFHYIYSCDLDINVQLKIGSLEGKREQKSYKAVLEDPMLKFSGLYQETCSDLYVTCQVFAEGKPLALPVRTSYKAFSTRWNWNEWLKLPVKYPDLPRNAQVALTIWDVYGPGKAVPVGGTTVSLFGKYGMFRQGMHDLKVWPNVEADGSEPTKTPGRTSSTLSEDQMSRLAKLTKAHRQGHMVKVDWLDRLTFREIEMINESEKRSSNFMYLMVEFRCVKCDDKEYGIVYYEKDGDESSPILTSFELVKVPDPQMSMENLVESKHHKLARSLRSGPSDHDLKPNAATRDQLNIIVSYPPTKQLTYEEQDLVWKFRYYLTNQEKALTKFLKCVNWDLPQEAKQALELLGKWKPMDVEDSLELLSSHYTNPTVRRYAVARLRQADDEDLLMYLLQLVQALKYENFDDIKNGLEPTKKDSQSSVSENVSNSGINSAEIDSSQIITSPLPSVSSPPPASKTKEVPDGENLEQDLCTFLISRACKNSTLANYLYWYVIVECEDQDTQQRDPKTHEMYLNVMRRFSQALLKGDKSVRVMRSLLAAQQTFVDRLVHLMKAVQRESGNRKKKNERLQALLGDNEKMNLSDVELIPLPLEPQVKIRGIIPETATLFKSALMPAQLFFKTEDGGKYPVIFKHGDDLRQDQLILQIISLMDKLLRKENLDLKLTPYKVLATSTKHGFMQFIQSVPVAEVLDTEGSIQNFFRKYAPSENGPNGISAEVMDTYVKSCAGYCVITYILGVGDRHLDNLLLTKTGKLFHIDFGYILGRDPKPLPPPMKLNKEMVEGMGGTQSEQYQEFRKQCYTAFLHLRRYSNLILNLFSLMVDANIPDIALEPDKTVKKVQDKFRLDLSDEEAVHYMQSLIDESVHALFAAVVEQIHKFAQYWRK

IC50 [µM] | VPS34 Percent Inhibition | SMILES
< 0.3 | >99 | CC(=O)Nc1cc2c(ccn3c(C(N)=O)c(-c4ccc(Cl)cc4Cl)nc23)cn1 [Compound I-24, 9-acetamido-2-(2,4-dichlorophenyl)imidazo[2,1-a][2,6]naphthyridine-3-carboxamide]
1 to 3 | 28 | CC(=O)Nc1cc(-c2nc(-c3ccc(Cl)cc3Cl)c(C(N)=O)[nH]2)ccn1 [Compound I-19, 2-(2-acetamidopyridin-4-yl)-4-(2,4-dichlorophenyl)-1H-imidazole-5-carboxamide]
1 to 3 | 27 | CC(=O)Nc1cc(-c2cn(-c3ccc(Cl)cc3Cl)c(-c3ccn[nH]3)n2)ccn1 [Compound I-10, N-{4-[1-(2,4-dichlorophenyl)-2-(1H-pyrazol-5-yl)-1H-imidazol-4-yl]pyridin-2-yl}acetamide]
0.3 to 1 | 55 | CC(=O)Nc1cc(-c2cn(-c3ccccn3)c(-c3ccccc3Cl)n2)ccn1 [Compound I-105, N-{4-[2-(2-chlorophenyl)-1-(pyridin-2-yl)-1H-imidazol-4-yl]pyridin-2-yl}acetamide]
1 to 3 | 35 | CC(=O)Nc1cc(-c2cn(-c3ccc(Cl)cc3Cl)c(-c3ccn[nH]3)n2)c(C)cn1 [Compound I-16, N-{4-[1-(2,4-dichlorophenyl)-2-(1H-pyrazol-5-yl)-1H-imidazol-4-yl]-5-methylpyridin-2-yl}acetamide]
